Test results published in ChEMBL document CHEMBL1137686, “Synthesis and anticonvulsant activity of new N-[(4-arylpiperazin-1-yl)-alkyl] derivatives of 3-phenyl-pyrrolidine-2,5-dione” (Eur J Med Chem, 2009).
Active and inactive are the calls of the source. No cut-off for these calls is given here.

Assays:
[1] = tested on: Mus musculus; experiment: Neurotoxicity in CF1 albino mouse assessed as ability to maintain equilibrium for 1 min on […] at 300 mg/kg, ip after 4 hrs by rotarod test; type: toxicity, organism-based; parameters: dose 300 mg/kg, route intraperitoneal; details: in vivo
[2] = tested on: Mus musculus; experiment: Anticonvulsant activity in CF1 albino mouse assessed as protection against maximal electroshock-induced seizures at 30 mg/kg, po after 0.25 hrs; type: functional
[3] = tested on: Mus musculus; experiment: Neurotoxicity in CF1 albino mouse assessed as motor impairment at 30 mg/kg, po after 2 hrs by rotarod test; type: toxicity, organism-based; parameters: dose 30 mg/kg, route oral; details: in vivo
[4] = tested on: Mus musculus; experiment: Anticonvulsant activity in CF1 albino mouse assessed as protection against maximal electroshock-induced seizures at 30 mg/kg, ip after 0.25 hrs; type: functional; details: route intraperitoneal
[5] = tested on: Mus musculus; experiment: Anticonvulsant activity in ip dosed CF1 albino mouse assessed as inhibition of maximal electroshock-induced seizures after 4 hrs; type: functional
[6] = tested on: Mus musculus; experiment: Neurotoxicity in CF1 albino mouse assessed as motor impairment at 30 mg/kg, po after 0.25 hrs by rotarod test; type: toxicity, organism-based; parameters: dose 30 mg/kg, route oral; details: in vivo
[7] = tested on: Mus musculus; experiment: Anticonvulsant activity in CF1 albino mouse assessed as protection against maximal electroshock-induced seizures at 30 mg/kg, ip after 0.5 hrs; type: functional; details: route intraperitoneal
[8] = tested on: Mus musculus; experiment: Neurotoxicity in CF1 albino mouse assessed as motor impairment at 30 mg/kg, po after 1 hr by rotarod test; type: toxicity, organism-based; parameters: dose 30 mg/kg, route oral; details: in vivo
[9] = tested on: Mus musculus; experiment: Anticonvulsant activity in CF1 albino mouse assessed as protection against maximal electroshock-induced seizures at 30 mg/kg, po after 2 hrs; type: functional
[10] = tested on: Mus musculus; experiment: Neurotoxicity in CF1 albino mouse assessed as motor impairment at 30 mg/kg, ip after 4 hrs by rotarod test; type: toxicity, organism-based; parameters: dose 30 mg/kg, route intraperitoneal; details: in vivo
[11] = tested on: Mus musculus; experiment: Anticonvulsant activity in CF1 albino mouse assessed as protection against maximal electroshock-induced seizures at 30 mg/kg, po after 0.5 hrs; type: functional
[12] = tested on: Mus musculus; experiment: Anticonvulsant activity in CF1 albino mouse assessed as protection against maximal electroshock-induced seizures at 30 mg/kg, ip after 2 hrs; type: functional; details: route intraperitoneal
[13] = tested on: Mus musculus; experiment: Anticonvulsant activity in CF1 albino mouse assessed as protection against maximal electroshock-induced seizures at 30 mg/kg, po after 1 hr; type: functional
[14] = tested on: Mus musculus; experiment: Neurotoxicity in CF1 albino mouse assessed as motor impairment at 30 mg/kg, ip after 0.25 hrs by rotarod test; type: toxicity, organism-based; parameters: dose 30 mg/kg, route intraperitoneal; details: in vivo
[15] = tested on: Mus musculus; experiment: Neurotoxicity in CF1 albino mouse assessed as ability to grasp rotarod at 300 mg/kg, ip after 0.5 hrs by rotarod test; type: toxicity, organism-based; parameters: dose 300 mg/kg, route intraperitoneal; details: in vivo
[16] = tested on: Mus musculus; experiment: Anticonvulsant activity in CF1 albino mouse assessed as protection against maximal electroshock-induced seizures at 30 mg/kg, ip after 4 hrs; type: functional; details: route intraperitoneal
[17] = tested on: Mus musculus; experiment: Neurotoxicity in CF1 albino mouse assessed as motor impairment at 30 mg/kg, po after 4 hrs by rotarod test; type: toxicity, organism-based; parameters: dose 30 mg/kg, route oral; details: in vivo
[18] = tested on: Mus musculus; experiment: Neurotoxicity in CF1 albino mouse assessed as death at 300 mg/kg, ip after 0.5 hrs by rotarod test; type: toxicity, organism-based; parameters: dose 300 mg/kg, route intraperitoneal; details: in vivo
[19] = tested on: Mus musculus; experiment: Neurotoxicity in CF1 albino mouse assessed as motor impairment at 30 mg/kg, po after 0.5 hrs by rotarod test; type: toxicity, organism-based; parameters: dose 30 mg/kg, route oral; details: in vivo
[20] = tested on: Mus musculus; experiment: Neurotoxicity in CF1 albino mouse assessed as motor impairment at 30 mg/kg, ip after 0.5 hrs by rotarod test; type: toxicity, organism-based; parameters: dose 30 mg/kg, route intraperitoneal; details: in vivo
[21] = tested on: Mus musculus; experiment: Anticonvulsant activity in CF1 albino mouse assessed as protection against maximal electroshock-induced seizures at 30 mg/kg, ip after 1 hr; type: functional; details: route intraperitoneal
[22] = tested on: Mus musculus; experiment: Neurotoxicity in CF1 albino mouse assessed as occurance of tremors at 300 mg/kg, ip after 0.5 hrs by rotarod test; type: toxicity, organism-based; parameters: dose 300 mg/kg, route intraperitoneal; details: in vivo
[23] = tested on: Mus musculus; experiment: Neurotoxicity in ip dosed CF1 albino mouse assessed as ability to maintain equilibrium for 1 min on […] after 0.5 hrs by rotarod test; type: toxicity, organism-based; details: in vivo
[24] = tested on: Mus musculus; experiment: Anticonvulsant activity in ip dosed CF1 albino mouse assessed as inhibition of maximal electroshock-induced seizures after 0.5 hrs; type: functional
[25] = tested on: Mus musculus; experiment: Anticonvulsant activity in CF1 albino mouse assessed as protection against maximal electroshock-induced seizures at 30 mg/kg, po after 4 hrs; type: functional

Cc1ccccc1C1CC(=O)N(CN2CCN(c3cccc(C(F)(F)F)c3)CC2)C1=O (stereo not given)
Activity [1]: Non-toxic
Activity [2]: inactive
Activity [3]: Non-toxic
Activity [4]: 50%
Activity [5]: 30 mg/kg
Activity [6]: 50%
Activity [7]: 50%
Activity [8]: Non-toxic
Activity [9]: 25%
Activity [10]: Non-toxic
Activity [11]: inactive
Activity [12]: 50%
Activity [13]: 50%
Activity [14]: Toxic
Activity [15]: Toxic
Activity [16]: 50%
Activity [17]: Non-toxic
Activity [18]: Toxic
Activity [19]: 25%
Activity [20]: Toxic
Activity [21]: 100%
Activity [22]: Toxic
Activity [23]: 300 mg/kg
Activity [24]: 30 mg/kg
Activity [25]: 50%
